Laboratory results published in PubChem BioAssay AID2387 (Broad Institute, 2010).
Active and inactive are the calls of the source.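 How the source made its calls: active means fitted EC50 no more than tenfold above the highest tested concentration; inconclusive means flat fit with 30 to 70% signal loss, or poor fit; inactive means the rest.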

test system: Candida albicans CaCi-2 growth (no fluconazole), Alamar Blue; experiment: intrinsic antifungal toxicity in Candida, azole-free – CaCi-2 strain, Alamar Blue fluorescence, counter-screen for fluconazole resistance reversal project, dose response (AID 2387); conditions: C. albicans CaCi-2 (fluconazole-resistant clinical isolate) growth without fluconazole, 48 h

SMILES | EC50
O=C(Nc1sc2c(c1C(=O)c1ccc(Cl)cc1)CCCC2)c1cccnc1 | > 15 µM (inactive)
O=C(NCc1ccccc1)c1sc(=S)n2c1[nH]c(=O)c1ccccc12 | > 15 µM (inactive)
Cc1cc2ccccn2c1C(C[N+](=O)[O-])c1c(F)cccc1Cl (stereo not given) | 2.82 µM
CC1(C)COCN1S(=O)(=O)c1ccc(C(=O)Nc2nnc(-c3ccc(Cl)s3)o2)cc1 | > 16 µM (inactive)
N#Cc1cc(C#N)c(N2CCN(c3cccc(Cl)n3)CC2)nc1N | > 15 µM (inactive)
O=C(NCc1ccco1)c1sc(=S)n2c1[nH]c(=O)c1ccccc12 | > 16 µM (inactive)
CCc1ccccc1NC(=S)N=Nc1c(O)n(C)c2ccc(S(=O)(=O)N3CCOCC3)cc12 | > 15 µM (inactive)
O=C(Nc1nnc(-c2ccc3c(c2)CCCC3)o1)c1ccc(Cl)cc1Cl | 14.5 µM
COc1ccc(C(=O)NNC(=S)NC(=O)c2ccc(Cl)cc2)cc1 | > 16 µM (inactive)
Cc1ccnc(Sc2ccc([N+](=O)[O-])cc2[N+](=O)[O-])n1 | > 15 µM (inactive)
CCCCc1c(O)nc(SCC(=O)Nc2cccc3ccccc23)n(-c2ccccc2OC)c1=O | > 16 µM (inactive)
CN(C)S(=O)(=O)Oc1cccc(C(=O)Nc2ccc(Cl)c(Cl)c2)c1 | > 15 µM (inactive)
O=C1CS/C(=N\C(=O)N2c3ccccc3Sc3ccccc32)N1 | > 15 µM (inactive)
CCCn1nnnc1NC(=O)c1ccc2ccccc2c1 | > 15 µM (inactive)
Oc1c(C(Nc2nc3ccccc3s2)c2ccco2)ccc2cccnc12 (stereo not given) | 4.68 µM
O=C(Nc1nnc(-c2ccc3c(c2)CCCC3)o1)c1ccccc1 | 9.67 µM
COc1cccc(N=Nc2ccc(O)c3ncccc23)c1 | 1.26 µM
CCc1nnc(NC(=O)CSc2ncc(-c3ccccc3)n2C)s1 | > 15 µM (inactive)
Cc1oc2ccc(OC(=O)N(C)C)cc2c1C(=O)OC(C)C | > 16 µM (inactive)
O=C(NC(Nc1nc2ccc([N+](=O)[O-])cc2s1)(C(F)(F)F)C(F)(F)F)c1ccccc1Cl | > 16 µM (inactive)
CCCC(=O)NC(c1ccc(N(C)C)cc1)c1ccc2cccnc2c1O (stereo not given) | > 16 µM (inactive)
CC[n+]1c(C=C2C=C(C)OC(C)=C2)sc2ccccc21 | > 16 µM (inactive)
C[C@]12CCC3[C@@H](CC[C@H]4C[C@@H](O)CC[C@]34C)C1CCC2=O (stereo not given in full) | > 15 µM (inactive)
COc1cccc(-c2nc(NC(C)C)c3ccccc3n2)c1O | > 16 µM (inactive)
COc1cccc(COc2cc3ccccc3nc2C)c1 | > 16 µM (inactive)

SMILES | EC50
CCCC(=O)NC(c1cccs1)c1cc(Cl)c2cccnc2c1O (stereo not given) | 12 µM
Cc1ccccc1/C=C1\SC(=S)N(/N=C/c2cc([N+](=O)[O-])ccc2O)C1=O | > 16 µM (inactive)
COc1ccc(-n2nc(C(=O)NCC(=O)N3CCN(c4ccccc4)CC3)c3ccccc3c2=O)c(OC)c1 | > 16 µM (inactive)
Cc1ccc(-n2nc(C)c3c(C)cc(=O)[nH]c32)cc1 | > 15 µM (inactive)
Clc1ccc2c(c1)C(c1cccs1)=NNC(c1cccnc1)=N2 | > 15 µM (inactive)
CCn1c(O)c(N=NC(=O)c2cccs2)c2ccccc21 | > 15 µM (inactive)
CC(C)(C)c1ccc(Cc2n[nH]c(=S)[nH]c2=O)cc1 | > 16 µM (inactive)
O=[N+]([O-])c1ccc(O)c(Nc2ncnc3ccc(Br)cc23)c1 | > 16 µM (inactive)
O=[N+]([O-])c1cc(CN2CCN(c3ccccc3)CC2)c(O)c2ncccc12 | 6.17 µM
c1ccc2c(c1)OCC(CNc1ncnc3sccc13)O2 (stereo not given) | > 15 µM (inactive)
CC[n+]1c(/C=C2\Sc3ccccc3N2C)ccc2cccc(C)c21 | 2.43 µM
CC(Nc1ncnc2ccccc12)c1ccccc1 (stereo not given) | > 16 µM (inactive)
CCC(=O)NC(c1cccs1)c1cc(Cl)c2cccnc2c1O (stereo not given) | 16.4 µM
Oc1c(CN2CCc3ccccc3C2)cc(Cl)c2cccnc12 | 4.84 µM
Cn1cc(C(c2ccccn2)c2cn(C)c3ccccc23)c2ccccc21 | > 15 µM (inactive)
COc1ccc(/C=C/c2cc(-c3ccc(C)cc3)o[n+]2C)cc1 | > 16 µM (inactive)
CCCCCCc1c(C)nc(-n2[nH]c(C)c(CCO)c2=O)[nH]c1=O | > 16 µM (inactive)
COc1cccc(N=Nc2ccc3cccnc3c2O)c1 | 1.05 µM
CC(C)N1CCc2c(sc(NC(=O)c3nc4ccccc4s3)c2C(N)=O)C1 | > 15 µM (inactive)
CCCn1nc([N+](=O)[O-])c(C(C#N)c2nc3ccccc3s2)c(Cl)c1=O (stereo not given) | > 16 µM (inactive)
CCCCCCSc1nnc2[nH]c(=O)cc(N)n12 | > 15 µM (inactive)
CCCC(=O)NC(c1ccc(C)cc1)c1ccc2cccnc2c1O (stereo not given) | > 15 µM (inactive)
COc1ccc(-c2nnc(NC(=O)c3ccc(S(=O)(=O)N4CCCc5ccccc54)cc3)o2)cc1 | 13.3 µM
Cc1c(Cl)ccc2c1NC(=O)[C@]21N[C@@H](Cc2ccccc2)[C@H]2C(=O)N(c3ccc(F)cc3)C(=O)[C@H]21 | > 16 µM (inactive)
CC(C)(C)c1ccc(CSc2cnn(C(C)(C)C)c(=O)c2Cl)cc1 | > 16 µM (inactive)
